Reference: patent US20260325504A1, “Genetically Engineered Human Pituitary Corticotroph Tumor Organoids Exhibit Divergent Responses to Selective Glucocorticoid Receptor Modulators” (Corcept Therapeutics Incorporated, priority 2022, published 2026)
“Also recorded” adds a separate entry of the source.

What was measured:
hPITO = assay: Spectral flow cytometry, Zombie positive cells (cell death), hPITOs; assay type: cell-based, human; settings: 48 h, FIGS. 9K, L
From the text: 1.3 Generation and Culture of Human PitNET Tissue Organoids (hPITOs)
Patients undergoing planned transsphenoidal surgery for PitNETs were identified in the outpatient neuroendocrinology and neurosurgery clinics and collected by the St. Joseph's Hospital and Barrow Neurological Institute Biobank under the collection protocol PHXA-05TS038, and outcomes data protocol PHXA-0004-72-29 with approval of the Institutional Review Board (IRB) and patient consent. De-identified samples were shipped in collection and transport media (Table 3) to the Zavros laboratory (University of Arizona) for processing within 24 hours of collection. Resected PitNET tissues were washed with Dulbeccos Phosphate Buffered Saline (DPBS) supplemented with 1× Penicillin/Streptomycin, 1× Kanamycin and 1× Amphotericin/Gentamycin, minced into smaller pieces, and incubated with digestion buffer (Dulbecco's Modified Eagle Medium/Nutrient Mixture F-12 (DMEM/F12) supplemented with 0.4% Collagenase 2, 0.1% Hyaluronic Acid, 0.03% Trypsin). The tissue was incubated with Accutase (Thermo Fisher Scientific) for a further 5 minutes, and the cells were pelleted and washed with DPBS supplemented with antibiotics. Dissociated cells were then seeded as Matrigel™ domes in culture dishes and overlaid with growth media (Table 4). Media was replaced every 3 days and organoids were harvested for downstream experiments or passaged after 15 days of culture (FIG. 1B).
(§1) Sonic Hedgehog (SHH) was withdrawn from the organoid growth media 16 hours prior to treatment. The experimental treatment groups included: vehicle (Veh), mifepristone (500 nM, Selleckchem S2606), GANT61 (5 μM, Stemcell Technologies 73692), ketoconazole (Keto, 10 μM, Selleckchem S1353), pasireotide (Pas, 100 nM, Target Mol TP2207-SB001), octreotide (Oct, 100 nM, Selleckchem P1017), mifepristone plus GANT61, mifepristone plus Keto, mifepristone plus Pas, relacorilant (500 nM, Corcept Therapeutics CORT125134), relacorilant plus Pas, relacorilant plus Oct, or dexamethasone (Dexa, 100 nM, SIGMA S4902). In the combination treatments, cultures were pretreated with the GANT61, Keto, Pas or Oct for 2 hours prior to treatment with mifepristone or Rela. PitNET tissue derived organoids hPITO36, hPITO37, hPITO38, hPITO39, and hPITO40 were treated with the following experimental conditions: Vehicle (1), pasireotide (2), relacorilant (3), relacorilant & pasireotide (4), mifepristone (5), mifepristone & pasireotide (6). The IC50 values used for each hPITO line for each drug were determined based on dose responses (FIG. 12). All organoid cultures were treated for 48 hours prior to analysis.
The multicolor flow cytometry antibody panel was designed using the Cytek® Full Spectrum Viewer online tool to calculate the similarity index. Organoids were harvested in cold Serum-Free Defined Medium media and incubated with Zombie (BioLegend 423107, 1:100) for 15 minutes in the dark at room temperature, followed by incubation with fluorochrome-conjugated/unconjugated primary surface or cytoplasmic antibodies (Table 6) at 4° C. for 30 minutes. Cells were then washed with Cell Staining Buffer (BioLegend 420-201) and incubated at 4° C. for 30 minutes with secondary antibodies (Table 6). Cells were fixed using Cytofix/Cytoperm™ Fixation/Permeabilization Solution (BD Biosciences 554714) and washed with Fixation/Permeabilization wash buffer according to the recommended protocol. […]

ACTH = assay: Spectral flow cytometry, ACTH positive cells, iPSCUSP48MV organoids; assay type: cell-based, human; settings: 48 h, FIGS. 8C, G
Description: as §1
The multicolor flow cytometry antibody panel was designed using the Cytek® Full Spectrum Viewer online tool to calculate the similarity index. Organoids were harvested in cold Serum-Free Defined Medium media and incubated with Zombie (BioLegend 423107, 1:100) for 15 minutes in the dark at room temperature, followed by incubation with fluorochrome-conjugated/unconjugated primary surface or cytoplasmic antibodies (Table 6) at 4° C. for 30 minutes. Cells were then washed with Cell Staining Buffer (BioLegend 420-201) and incubated at 4° C. for 30 minutes with secondary antibodies (Table 6). Cells were fixed using Cytofix/Cytoperm™ Fixation/Permeabilization Solution (BD Biosciences 554714) and washed with Fixation/Permeabilization wash buffer according to the recommended protocol. […] Data was acquired using the Cytek® Aurora, analyzed using Cytobank Premium software (Beckman Coulter).

| Compound | cell death (Zombie positive cells) (hPITO) | ACTH positive cells / ACTH expression (ACTH) | cell death in epithelial/mesenchymal hybrid cell population (CK20, vimentin, CXCR4) (hPITO) | cell death in populations expressing stem cell markers SOX2, CXCR4 and nestin (hPITO) | cell death (Zombie positive cells) (hPITO; listed as Relacorilant) | ACTH positive cells / ACTH expression (ACTH; listed as Relacorilant) |
| --- | --- | --- | --- | --- | --- | --- |
| CC#C[C@]1(O)CC[C@H]2[C@@H]3CCC4=CC(=O)CCC4=C3[C@@H](c3ccc(N(C)C)cc3)C[C@@]21C [mifepristone, 11β-(4-dimethylaminophenyl)-17ß-hydroxy-17α-(1-propynyl)-estra-4,9-dien-3-one] | not observed | significant induction in the number of ACTH positive cells; also recorded: significantly increased the ACTH expression levels |  |  |  |  |
| Cn1cc(S(=O)(=O)N2CCC3=Cc4c(cnn4-c4ccc(F)cc4)C[C@]3(C(=O)c3cc(C(F)(F)F)ccn3)C2)cn1 [relacorilant, (R)-(1-(4-fluorophenyl)-6-((1-methyl-1H-pyrazol-4-yl)sulfonyl)-4,4a,5,6,7,8-hexahydro-1H-pyrazolo[3,4-g]isoquinolin-4a-yl) (4-(trifluoromethyl)pyridin-2-yl) methanone] | significant increase in cell death | did not significantly increase the number of ACTH-positive cells | significant cell death | significant cell death | Induces Tumor Cell Death; also recorded: significant increase in Zombie positive cells | did not significantly increase ACTH |
